Where two headings read alike, the source gives them in different places. Values belong to the molecule of their own block, whether it stands above or below them.
Experiments:
EL4 mouse lymphoma = assay: Cytotoxicity of epoxyketones, CellTitre-Glo, 48 h; type: cell-based; settings: EL4, 48 h
Method: (§1) Cytotoxicity Assays. Cancer cell lines (ATCC: U266 multiple myeloma, EL4 mouse lymphoma, Raji B-cell lymphoma) were cultured in Roswell Park Memorial Institute (RPMI) medium supplemented with 10% fetal bovine serum (FBS), 2 mM L-glutamine, 100 IU/mL penicillin, 100 μg/mL nonessential amino acids, 1 mM sodium pyruvate, and 57 μM β-mercaptoethanol. Cells (90 μL) were seeded in the inner 60 wells of an opaque-wall, clear flat-bottom 96-well plate (Corning/Falcon, 351177) at 20,000 cells per well. The outer perimeter wells were filled with 200 μL PBS to reduce evaporation in the central 60 wells. Epoxyketones 12 (20 mM in DMSO) were diluted in RPMI media to 1 mM (5% DMSO final concentration). Each epoxyketone was then diluted log-fold into 10 concentrations with 5% DMSO in RPMI. Each epoxyketone solution (10 μL) was added to the cells for a 0.5% DMSO final concentration across all wells and final epoxyketone concentrations of 100-0.005 μM. Negative control wells were treated with 10 μL of 5% DMSO in RPMI. Cells were incubated with compounds for 48 h, then cytotoxicity was measured with the CellTitre-Glo assay (Promega G9241).

Raji B-cell lymphoma = assay: Cytotoxicity of epoxyketones, CellTitre-Glo, 48 h; type: cell-based; settings: Homo sapiens
Method: as §1

U266 multiple myeloma = assay: Cytotoxicity of epoxyketones, CellTitre-Glo, 48 h; type: cell-based; settings: Homo sapiens, U-266, U266, 48 h
Method: as §1

EpnF = EpnF (Streptomyces hygroscopicus, UniProt V5RMU9); assay: Semiquantitative epoxide capture assay (EpnF-catalyzed epoxyketone formation); type: biochemical; settings: 1 μM EpnF; for EpnF-catalyzed conversion to epoxyketone (epoxide capture): 240 μM β-ketoacid substrate (FIG. 2); for EpnF-catalyzed formation of epoxyketone (epoxide capture): 250 μM β-ketoacid substrate, 1 h, positive control 11n (FIG. 1)
Sequence of EpnF (V5RMU9 entry or part of it): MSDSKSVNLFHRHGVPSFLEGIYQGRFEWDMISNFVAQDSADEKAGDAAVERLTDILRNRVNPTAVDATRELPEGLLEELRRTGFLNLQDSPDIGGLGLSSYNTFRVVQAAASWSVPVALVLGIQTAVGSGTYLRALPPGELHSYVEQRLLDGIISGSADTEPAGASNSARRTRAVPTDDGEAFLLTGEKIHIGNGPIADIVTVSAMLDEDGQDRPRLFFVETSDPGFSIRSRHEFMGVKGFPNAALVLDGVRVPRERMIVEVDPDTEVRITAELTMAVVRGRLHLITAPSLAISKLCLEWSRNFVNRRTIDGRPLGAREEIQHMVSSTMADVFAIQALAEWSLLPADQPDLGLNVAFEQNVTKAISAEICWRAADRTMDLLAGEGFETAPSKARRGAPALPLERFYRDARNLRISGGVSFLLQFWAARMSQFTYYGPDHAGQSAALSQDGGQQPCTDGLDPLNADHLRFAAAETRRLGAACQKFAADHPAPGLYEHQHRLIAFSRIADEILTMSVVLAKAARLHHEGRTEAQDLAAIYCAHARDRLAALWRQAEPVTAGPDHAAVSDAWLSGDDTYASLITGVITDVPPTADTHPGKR
Method: Recombinant EpnF was diluted to 1 μM in 180 μL EpnF Buffer in an 1.5 mL Eppendorf tube. The β-ketoacid 11 was added at various concentrations to a total reaction volume of 200 μL. The mixture was incubated in a heated shaker at 37° C. and 225 rpm for 1 h. The reaction mixture (30 μL×3 technical replicates) was transferred to a white, opaque 96-well plate (PerkinElmer, OptiPlate-96). Each plate also contained 30 μL×3 technical replicates of EpnF Buffer as a negative control. To each well, 15 μL of 125 mM nicotinamide in EpnF Buffer was added and mixed by pipetting. The plate was sealed with an adhesive foil cover (VWR Adhesive Foil for Microplates) and heated in an oven at 80° C. for 1 h. The plate was cooled to rt and 25 μL of 15% (v/v) acetophenone in EtOH and 25 μL of 1 M potassium hydroxide in EtOH were added to each well, then mixed by pipetting. The plate was cooled on ice for 10 min, then 125 μL formic acid was added to each well. The plate was resealed and heated in an oven at 100° C. for 5 min. The plate was cooled on ice for 5-10 min, then analyzed (λex 370 nm, λem 430 nm) on a fluorescence plate reader (Molecular Devices Spectramax M3).
We adapted a reported epoxide capture assay [Nelis, H. J. C. F.; Sinsheimer, J. E. (1981) A sensitive fluorimetric procedure for the determination of aliphatic epoxides under physiological conditions. Anal. Biochem. 115, 151-157.] to 96-well plate format to detect formation of the epoxyketone products semiquantitatively. Each β-ketoacid substrate 11 was incubated with recombinant, purified EpnF (1 h), then reacted with nicotinamide and acetophenone (1 h) to form a fluorescent 1,6-naphthyridinone 24. The fluorescent signals were normalized to that resulting from the known substrate β-ketoacid 11n as a positive control [Zabala, D.; Cartwright, J. W.; Roberts, D. M.; Law, B. J. C.; Song, L.; Samborskyy, M.; Leadlay, P. F.; Micklefield, J.; Challis, G. L. (2016) A flavin-dependent decarboxylase-dehydrogenase-monooxygenase assembles the warhead of α,β-epoxyketone proteasome inhibitors. J. Am. Chem. Soc. 138, 4342-4345.].

[1] = Stability of β-ketoacid substrates (decarboxylation, 1H-NMR or SPE-MS/MS); type: physicochemical
Method: To assess rates of decarboxylation under conditions relevant to storage, biochemical assays, and cellular assays, we investigated the stability of eponemycin-based β-ketoacids 11a and 11c under a variety of conditions as shown in below Table C.
For samples stored neat, β-ketoacid 11 (lyophilized powder) was aliquoted into 1.5-2 mg samples in glass vials and placed under Ar. Samples were stored on the bench top (20-25° C.), in at 4° C. refrigerator or in a −20° C. freezer. At each time point, an entire aliquot was dissolved in CD3OD (600 μL) analyzed by ^1H-NMR for decarboxylation to the corresponding isopropyl ketone byproduct 22. The degree of decarboxylation was determined by comparing integrations of two singlet peaks at 1.40 and 1.33 ppm, arising from the α,α-dimethyl groups in the β-ketoacid 11, to two doublet peaks at 1.09 and 1.06 ppm, arising from the isopropyl methyl groups in the decarboxylation product 22. A septuplet corresponding to the methine proton of the isopropyl group was also observed at 2.91 ppm.
For samples stored in PBS, aliquots of β-ketoacid 11 were dissolved in deuterated PBS (600 μL) and incubated in a 37° C. shaking incubator. At each time point, one aliquot was removed and analyzed by ^1H-NMR as above. NMR changes observed in deuterated PBS were similar to those observed in CD3OD above.
For samples stored in RPMI, β-ketoacid 11 (lyophilized powder) was dissolved in EtOH to a working stock concentration of 20 mM. The sample was diluted in RPMI to 100 μM (1000 μL) and incubated at 37° C. At each time point, an aliquot (50 μL) was removed from the master sample, transferred to a 96-well plate, quenched with 4 vol MeOH, centrifuged at 4,000 g to precipitate debris, and immediately analyzed by SPE-MS/MS to quantitate β-ketoacid 11 remaining.

Compound: CCCC(=O)N[C@@H](CO)C(=O)N[C@@H](CC(C)C)C(=O)[C@@]1(C)CO1 [Compound 12n]
IC50 (EL4 mouse lymphoma; read-out: IC50): 5.7 µM
IC50 (EL4 mouse lymphoma; read-out: log IC50 (converted)): 5.37 µM
IC50 (Raji B-cell lymphoma; read-out: IC50): 5.4 µM
IC50 (Raji B-cell lymphoma; read-out: log IC50 (converted)): 5.37 µM
IC50 (U266 multiple myeloma; read-out: IC50): 4.8 µM
IC50 (U266 multiple myeloma; read-out: log IC50 (converted)): 4.79 µM

EpnF-catalyzed conversion to epoxyketone (epoxide capture) (EpnF): could not be truncated to alanine
Compound: CC(C)CCCCC(=O)N[C@@H](CO)C(=O)N[C@@H](C)C(=O)C(C)(C)C(=O)O [Compound 11f, (4S)-4-[(2S)-3-Hydroxy-2-(6-methylheptanamido)propanamido]-2,2-dimethyl-3-oxopentanoic acid]

Compound: CC(C)C[C@H](NC(=O)[C@H](CO)NC(=O)c1ccccc1)C(=O)[C@@]1(C)CO1 [Compound 12o, (2S)-3-Hydroxy-N-[(2S)-4-methyl-1-[(2R)-2-methyloxiran-2-yl]-1-oxopentan-2-yl]-2-(phenylformamido)propenamide]
IC50 (EL4 mouse lymphoma; read-out: IC50): 7.2 µM
IC50 (EL4 mouse lymphoma; read-out: log IC50 (converted)): 7.24 µM
IC50 (Raji B-cell lymphoma; read-out: IC50): 3.6 µM
IC50 (Raji B-cell lymphoma; read-out: log IC50 (converted)): 3.47 µM
IC50 (U266 multiple myeloma; read-out: IC50): 2.7 µM
IC50 (U266 multiple myeloma; read-out: log IC50 (converted)): 2.69 µM

Compound: CC(C)CCCCC(=O)N[C@@H](C)C(=O)N[C@@H](CC(C)C)C(=O)[C@@]1(C)CO1 [Compound 12j, 6-Methyl-N-[(1S)-1-{[(2S)-4-methyl-1-[(2R)-2-methyloxiran-2-yl]-1-oxopentan-2-yl]carbamoyl}ethyl]heptanamide]
IC50 (EL4 mouse lymphoma; read-out: IC50): 3.2 µM
IC50 (EL4 mouse lymphoma; read-out: log IC50 (converted)): 3.02 µM
IC50 (Raji B-cell lymphoma; read-out: IC50): 1.9 µM
IC50 (Raji B-cell lymphoma; read-out: log IC50 (converted)): 1.91 µM
IC50 (U266 multiple myeloma; read-out: IC50): 2.2 µM
IC50 (U266 multiple myeloma; read-out: log IC50 (converted)): 2.19 µM

Compound: CC(C)CCCCC(=O)N[C@@H](C)C(=O)N[C@@H](CC(C)C)C(=O)C(C)(C)C(=O)O [Compound 11j, (4S)-2,2,6-Trimethyl-4-[(2S)-2-(6-methylheptanamido)propanamido]-3-oxoheptanoic acid]
EpnF-catalyzed conversion to epoxyketone (epoxide capture) (EpnF): tolerated

EpnF-catalyzed formation of epoxyketone (epoxide capture) (EpnF): no epoxide formation was detected
half-life ([1]; deuterated PBS, PBS, 37° C.): 15 min
stability / rate of decarboxylation (in words) ([1]; neat at low temperatures, buffer or media at 37° C.): considerably faster
Compound: CC(C)CCCCC(=O)N[C@@H](CO)C(=O)N[C@@H](CC(C)C)C(=O)C(C)(CO)C(=O)O (single isomer, unassigned) [Compound 11c]

EpnF-catalyzed formation of epoxyketone (epoxide capture) (EpnF): no epoxide formation was detected
Compound: C=C(C)C[C@H](NC(=O)[C@H](CO)NC(=O)CCCCC(C)C)C(=O)C(C)(CO)C(=O)O (single isomer, unassigned) [Compound 11d]

Compound: CC(C)CCCCC(=O)N[C@H](C(=O)N[C@@H](CC(C)C)C(=O)[C@@]1(C)CO1)[C@@H](C)O [Compound 12l, N-[(1S)-2-Hydroxy-1-{[(2S)-4-methyl-1-[(2R)-2-methyloxiran-2-yl]-1-oxopentan-2-yl]carbamoyl}propyl]-6-methylheptanamide]
IC50 (EL4 mouse lymphoma; read-out: IC50): 3.7 µM
IC50 (EL4 mouse lymphoma; read-out: log IC50 (converted)): 3.55 µM
IC50 (Raji B-cell lymphoma; read-out: IC50): 2.1 µM
IC50 (Raji B-cell lymphoma; read-out: log IC50 (converted)): 2.09 µM
IC50 (U266 multiple myeloma; read-out: IC50): 2.1 µM
IC50 (U266 multiple myeloma; read-out: log IC50 (converted)): 2.14 µM

EpnF-catalyzed conversion to epoxyketone (epoxide capture) (EpnF): not accepted
Compound: CC(C)CCCCC(=O)N[C@@H](Cc1ccccc1)C(=O)N[C@@H](CC(C)C)C(=O)C(C)(C)C(=O)O [Compound 11m, (4S)-2,2,6-Trimethyl-4-[(2S)-2-(6-methylheptanamido)-3-phenylpropanamido]-3-oxoheptanoic acid]

Compound: CC(C)CCCCC(=O)N[C@@H](CO)C(=O)N[C@@H](CC(C)C)C(=O)C(C)C(=O)O (some centres unmarked) [Compound 11e]
EpnF-catalyzed conversion to epoxyketone (epoxide capture) (EpnF): not tolerated

Reference: patent US20260234116A1, “CYTOTOXIC EPOXYKETONE COMPOUNDS, PRECURSORS, COMPOSITIONS, AND METHODS OF USE” (Memorial Sloan-Kettering Cancer Center, priority 2023, published 2026)
